# Experimental data from PMC9694334, “Synthesis and Biological Evaluation of a Fused Structure of Indolizine and Pyrrolo[1,2-c]pyrimidine: Identification of Its Potent Anticancer Activity against Liver Cancer Cells” (Pharmaceuticals, 2022).
# Legend:
# Type in all cases: cell-based
# HepG2 cells = test: Cell viability assay (MTS) in HepG2 cells; conditions: 10 μM, mean, n = 3
# Procedure: (§1) HepG2, Huh7, H1299, HT29, AGS and A549 cells were purchased from the Korean Cell Line Bank (Seoul, Korea) and HaCaT cells were obtained from Prof. Sohee Kwon (Yonsei University, Korea). Liver cancer cells (HepG2), human keratinocyte cells (HaCaT), and lung cancer cells (A549) were grown in DMEM high-glucose medium, liver cancer cells (Huh7) and non-small cell lung cancer cells (H1299) were grown in RPMI 1640, and gastric cancer cells (AGS) were grown in Coon’s modified F12 medium. All media were supplemented with 10% FBS, 100 Units/mL penicillin, and 100 μg/mL streptomycin. All cells were incubated at 37 °C, 5% CO2 and 95% humidity.
# (§2) Cell viability assay was conducted using Cell Titer 96® AQueous One Solution Cell proliferation Assay kit (Promega, Madison, WI, USA). Five cancer cells and HaCaT cells were plated in 96-well microplates with growth medium for 24 h. When cell confluency reached ~30%, cells were treated with DMSO (vehicle) and test compounds. The medium and test compounds were replaced every 24 h. To measure cell viability, the cells were incubated with MTS solution for 1 h. The absorbance was measured by using Infinite M200 microplate reader (Tecan, Männedorf, Switzerland) at 490 nm.
# (§3) Figure 2 Effect of 5r on cell viability in HepG2, Huh7, AGS, H1299, A549, HaCaT, NIH3T3, and HEK293T cells. (A–H) HepG2, Huh7, AGS, H1299, A549, HaCaT, NIH3T3, and HEK293T cells were cultured with 5r at the indicated concentrations for 72 h, and medium was replaced every 24 h with freshly added 5r. Cell viability was measured by MTS analysis (mean ± S.D., n = 5). * p < 0.05, ** p < 0.01, *** p < 0.001.
# A549 cells = test: Cell viability assay (MTS) in A549 cells; conditions: 10 μM, mean, n = 3
# Procedure: as §1, §2, §3
# AGS cells = test: Cell viability assay (MTS) in AGS cells; conditions: 10 μM, mean, n = 3
# Procedure: as §1, §2, §3
# H1299 cells = test: Cell viability assay (MTS) in H1299 cells; conditions: 10 μM, mean, n = 3
# Procedure: as §1, §2, §3
# HT29 cells = test: Cell viability assay (MTS) in HT29 cells; conditions: mean, n = 3
# Procedure: as §1, §2
Structure (SMILES),% Inhibition of Cell Viability at 10 μM HepG2 (HepG2 cells),% Inhibition of Cell Viability at 10 μM A549 (A549 cells),% Inhibition of Cell Viability at 10 μM AGS (AGS cells),% Inhibition of Cell Viability at 10 μM H1299 (H1299 cells),% Inhibition of Cell Viability at 10 μM HT29 (HT29 cells)
"N#Cc1c2c3cccn3c(-c3ccccc3)nc2n2ccccc12 [Compound 5a, 5-Phenylpyrrolo[1′,2′:1,6]pyrimido[5,4-b]indolizine-12-carbonitrile]",85.0%,<25%,<25%,81.5%,<25%
"COc1ccc(-c2nc3c(c(C#N)c4ccccn43)c3cccn23)cc1 [Compound 5b, 5-(4-Methoxyphenyl)pyrrolo[1′,2′:1,6]pyrimido[5,4-b]indolizine-12-carbonitrile]",57.0%,25.5%,<25%,79.1%,<25%
"COc1ccc(-c2nc3c(c(C#N)c4ccccn43)c3cccn23)cc1OC [Compound 5c, 5-(3,4-Dimethoxyphenyl)pyrrolo[1′,2′:1,6]pyrimido[5,4-b]indolizine-12-carbonitrile]",76.7%,47.1%,56.0%,94.0%,44.0%
"COc1cc(OC)cc(-c2nc3c(c(C#N)c4ccccn43)c3cccn23)c1 [Compound 5d, 5-(3,5-Dimethoxyphenyl)pyrrolo[1′,2′:1,6]pyrimido[5,4-b]indolizine-12-carbonitrile]",57.3%,<25%,<25%,83.4%,<25%
"COc1cc(-c2nc3c(c(C#N)c4ccccn43)c3cccn23)cc(OC)c1OC [Compound 5e, 5-(3,4,5-Trimethoxyphenyl)pyrrolo[1′,2′:1,6]pyrimido[5,4-b]indolizine-12-carbonitrile]",37.7%,25.3%,<25%,89.0%,<25%
"N#Cc1c2c3cccn3c(-c3ccc4ccccc4c3)nc2n2ccccc12 [Compound 5f, 5-(Naphthalen-2-yl)pyrrolo[1′,2′:1,6]pyrimido[5,4-b]indolizine-12-carbonitrile]",92.5%,<25%,<25%,88.4%,<25%
"N#Cc1c2c3cccn3c(-c3cccc4ccccc34)nc2n2ccccc12 [Compound 5g, 5-(Naphthalen-1-yl)pyrrolo[1′,2′:1,6]pyrimido[5,4-b]indolizine-12-carbonitrile]",49.2%,<25%,<25%,82.8%,<25%
"N#Cc1c2c3cccn3c(-c3ccc(Cl)cc3)nc2n2ccccc12 [Compound 5h, 5-(4-Chlorophenyl)pyrrolo[1′,2′:1,6]pyrimido[5,4-b]indolizine-12-carbonitrile]",88.4%,52.5%,31.0%,80.0%,26.9%
"N#Cc1c2c3cccn3c(-c3ccc(Br)cc3)nc2n2ccccc12 [Compound 5i, 5-(4-Bromophenyl)pyrrolo[1′,2′:1,6]pyrimido[5,4-b]indolizine-12-carbonitrile]",87.4%,36.7%,<25%,92.1%,<25%
"COC(=O)c1ccc(-c2nc3c(c(C#N)c4ccccn43)c3cccn23)cc1 [Compound 5j, Methyl 4-(12-cyanopyrrolo[1′,2′:1,6]pyrimido[5,4-b]indolizin-5-yl)benzoate]",42.2%,<25%,<25%,52.8%,<25%
"N#Cc1c2c3cccn3c(-c3ccccn3)nc2n2ccccc12 [Compound 5k, 5-(Pyridin-2-yl)pyrrolo[1′,2′:1,6]pyrimido[5,4-b]indolizine-12-carbonitrile]",90.6%,29.0%,<25%,83.8%,28.8%
"N#Cc1c2c3cccn3c(-c3cc4ccccc4[nH]3)nc2n2ccccc12 [Compound 5l, 5-(1H-Indol-2-yl)pyrrolo[1′,2′:1,6]pyrimido[5,4-b]indolizine-12-carbonitrile]",99.2%,46.9%,<25%,62.3%,58.6%
"N#Cc1c2c3cccn3c(-c3ccco3)nc2n2ccccc12 [Compound 5m, 5-(Furan-2-yl)pyrrolo[1′,2′:1,6]pyrimido[5,4-b]indolizine-12-carbonitrile]",64.0%,<25%,<25%,81.9%,<25%
"N#Cc1c2c3cccn3cnc2n2ccccc12 [Compound 8, Pyrrolo[1′,2′:1,6]pyrimido[5,4-b]indolizine-12-carbonitrile]",<25%,<25%,<25%,<25%,<25%
"N#Cc1c2c3[nH]c4ccccc4c3c(-c3ccccc3)nc2n2ccccc12 [Compound 10a, 7-Phenyl-12H-indolizino[2′,3′:5,6]pyrido[4,3-b]indole-13-carbonitrile]",<25%,45.9%,48.4%,68.8%,61.2%
"COc1ccc(-c2nc3c(c(C#N)c4ccccn43)c3[nH]c4ccccc4c23)cc1 [Compound 10b, 7-(4-Methoxyphenyl)-12H-indolizino[2′,3′:5,6]pyrido[4,3-b]indole-13-carbonitrile]",<25%,<25%,<25%,<25%,<25%
"N#Cc1c2c3[nH]c4ccccc4c3c(-c3ccc(Br)cc3)nc2n2ccccc12 [Compound 10c, 7-(4-Bromophenyl)-12H-indolizino[2′,3′:5,6]pyrido[4,3-b]indole-13-carbonitrile]",39.6%,<25%,<25%,<25%,<25%
